Measurements from PMC6321222, “An Application of Fit Quality to Screen MDM2/p53 Protein-Protein Interaction Inhibitors” (Molecules, 2018).
Like-named read-outs stand apart in the source and are kept apart here.

Tests used:
[1] = target: T1, human recombinant His-fused soluble protein MDM2 (residues 1–118) (Homo sapiens, UniProt Q00987); assay: biochemical; format: binding; conditions: for FQ-Test: fit quality calculated using pKi tested by FP; for Ki: fluorescence polarization assay
T1 construct: His-fused soluble protein MDM2 (residues 1–118); His
T1 sequence (Q00987 1-118): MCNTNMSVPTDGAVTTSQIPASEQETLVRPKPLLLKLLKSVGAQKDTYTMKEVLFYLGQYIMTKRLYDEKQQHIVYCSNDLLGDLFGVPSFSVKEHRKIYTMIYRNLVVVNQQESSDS

HepG2 (wt-p53) = assay: cells; format: cell-based, human; conditions: for IC50: Homo sapiens, HepG2, means of three experiments, 72 h, read-out: MTT IC50 HepG2 (wt-p53)
Experimental: (§1) In order to further confirm whether they inhibit MDM2 and release p53, a cellular test using HepG2 cell line (wild-type p53; wt-p53) vs. Hep3B cell line (p53 null) was carried out. The selectivity was calculated by IC50 against Hep3B divided by HepG2 (Table 1). The larger the selectivity value was, the stronger the interaction force between the ligands and MDM2.
(§2) The cellular growth inhibitory activity was determined using two human hepatoma cell lines, HepG2 (with wild-type p53) and Hep3B (with wt-p53 null). The IC50 was then analyzed using the GraphPad Prism 5 software (see Supplemental Materials).
(§3) In vitro antitumor activity.
(§4) Liver hepatocellular carcinoma HepG2 (with wild-type p53) and Hep3B (with p53 null) cell lines […]
(§5) 37°C in a humidified 5% carbon dioxide humidified incubator.
(§6) 5-6×10^4 cells per well were plated in 96-well plates (Costar) for 24 h, and the test compounds (prepared in 100% DMSO as a stock solution) were added in triplicate (100µL per well). 8 different concentrations (from 0.05 to 100µM) were tested for each compound. For each assay, the controls included only the medium (blank) and only the cells (positive). After 72 h of incubation, 20 µL of MTT (3-[4,5-dimethylthiazol-2-yl]-2,5-diphenyltetrazoliumbromide) solution (5 mg/mL) was added to each well, and after the samples were shaken for 1 min the plate was incubated further for 4 h at 37°C. […] were dissolved with 150 µL of DMSO and the plates were read using Eon (BioTek) at 570 nm. The IC50 was then analyzed using GraphPad Prism software. […]

Hep3B (p53 null) = assay: cells; format: cell-based; conditions: Homo sapiens, means of three experiments, 72 h, read-out: MTT IC50 Hep3B (p53 null)
Experimental: as §1, §2, §3, §4, §5, §6

MDM2/p53 PPI = conditions: Figure 9, representative of each group; collected from the literature; cited from earlier work
[2] = IC50 of Hep3B (p53 null) divided by HepG2 (wt-p53)

Structure (SMILES)	FQ-Test [1]	Ki [1] [µM]	IC50 (HepG2 (wt-p53)) [µM]	Selectivity (HepG2 (wt-p53); [2])	IC50 (Hep3B (p53 null)) [µM]	IC50 (MDM2/p53 PPI) [µM]	Selectivity (HepG2 (wt-p53))
COc1ccc(OC)c(S(=O)(=O)N(C)CC(=O)Nc2ccccc2OC)c1 [compound 2]	0.78	2.21	5.38	6.23	33.5		
CC(C)(C)CC1NC(C(=O)NC2CCC(O)CC2)C(c2cccc(Cl)c2F)C12C(=O)Nc1cc(Cl)ccc12 (stereo not shown) [H]						0.214	
CCOc1ccccc1Oc1cnc(N)nc1-c1ccc(OCc2ccc(C)cc2)cc1O [compound 6]	0.83	0.59	5.54		20.5		3.71
Nc1c(Cl)cc([C@@H](O)CN[C@H]2c3ccccc3CSc3ccccc32)cc1Cl [compound 4]	0.83	0.82	5.35		34.8		6.51
COc1cc(C(=O)O)ccc1NC(=O)[C@@H]1N[C@@H](CC(C)(C)C)[C@](C#N)(c2ccc(Cl)cc2F)[C@H]1c1cccc(Cl)c1F [G]						0.006	
CCOc1cc(C(C)(C)C)ccc1C1=N[C@@](C)(c2ccc(Cl)cc2)[C@@](C)(c2ccc(Cl)cc2)N1C(=O)N1CCN(CCCS(C)(=O)=O)CC1 [A]						0.09	
CCCCN1C(=O)[C@](O)(CC(=O)c2ccccc2OC)c2cc(Br)ccc21 [compound 1]	0.75	3.9	8.63		77.5		8.98
CC(C)C(CS(=O)(=O)C(C)C)N1C(=O)C(C)(CC(=O)O)CC(c2cccc(Cl)c2)C1c1ccc(Cl)cc1 (stereo not shown) [B]						0.0001	
O=C(Nc1nc2ccccc2s1)c1ccccc1C(=O)c1ccc(Cl)cc1 [compound 3]	0.86	0.62	4.4		47.3		10.75
COC(=O)c1cc(Oc2ccc(C(F)(F)F)cc2NS(=O)(=O)c2cccc(Cl)c2C)cs1 [compound 5]	0.80	0.94	4.77	4.87	23.2		
